From ChEMBL document CHEMBL3885881, “DrugMatrix”

Species on record: Rattus norvegicus
Test: DrugMatrix - Regimen: Daily Repeat
Format: toxicity, organism-based, Sprague-Dawley
Set-up: regimen Daily Repeat, gender Male, age 6-8 weeks
Conditions: in vivo, iv, 50 mg/kg, dose level Low, vehicle 100 % SALINE; for ABSOLUTE BASOPHIL / ABSOLUTE EOSINOPHIL / ABSOLUTE LYMPHOCYTE / ABSOLUTE MONOCYTE / ABSOLUTE SEGMENTED NEUTROPHIL / BASOPHIL / EOSINOPHIL / ERYTHROCYTE COUNT / HEMATOCRIT / HEMOGLOBIN / LEUKOCYTE COUNT / LYMPHOCYTE / MEAN CORPUSCULAR HEMOGLOBIN / MEAN CORPUSCULAR HEMOGLOBIN CONCENTRATION / MEAN CORPUSCULAR VOLUME / MONOCYTE / NEUTROPHIL / NUCLEATED RED BLOOD CELLS / PLATELET COUNT: tissue Blood; for ALANINE AMINOTRANSFERASE / ALBUMIN / ALKALINE PHOSPHATASE / ASPARTATE AMINOTRANSFERASE / BLOOD UREA NITROGEN / CARBON DIOXIDE / CHLORIDE / CHOLESTEROL / CREATINE PHOSPHOKINASE / CREATININE / GLUCOSE / LACTATE DEHYDROGENASE / LIPASE / PHOSPHORUS / POTASSIUM / SODIUM / TOTAL BILIRUBIN / TOTAL PROTEIN / URIC ACID: tissue Plasma

## CC1(C)S[C@@H]2[C@H](NC(=O)Cc3ccccc3)C(=O)N2[C@H]1C(=O)O [PENICILLIN G]
72 h, time 3 day
  ABSOLUTE BASOPHIL: 0 CELLS/uL
  ABSOLUTE EOSINOPHIL: 74.67 CELLS/uL
  ABSOLUTE LYMPHOCYTE: 13141.67 CELLS/uL
  ABSOLUTE MONOCYTE: 398.33 CELLS/uL
  ABSOLUTE SEGMENTED NEUTROPHIL: 1318.67 CELLS/uL
  BASOPHIL: 0%
  EOSINOPHIL: 0.67%
  ERYTHROCYTE COUNT: 5.85 x10E6/uL
  HEMATOCRIT: 37.47%
  HEMOGLOBIN: 13.8 G/DL
  LEUKOCYTE COUNT: 14.93 x10E3/uL
  LYMPHOCYTE: 87.67%
  MEAN CORPUSCULAR HEMOGLOBIN: 23.6 pg
  MEAN CORPUSCULAR HEMOGLOBIN CONCENTRATION: 36.87 G/DL
  MEAN CORPUSCULAR VOLUME: 64.07 fL
  MONOCYTE: 2.67%
  NEUTROPHIL: 9%
  NUCLEATED RED BLOOD CELLS: 0 /100WBC
  PLATELET COUNT: 1362 x10E3/uL
  ALANINE AMINOTRANSFERASE: 56.33 u/L
  ALBUMIN: 4.37 G/DL
  ALKALINE PHOSPHATASE: 354 u/L
  ASPARTATE AMINOTRANSFERASE: 76.67 u/L
  BLOOD UREA NITROGEN: 13.33 mg/dL
  CARBON DIOXIDE: 24.33 mmol/L
  CHLORIDE: 103.67 MEQ/L
  CHOLESTEROL: 82.67 mg/dL
  CREATINE PHOSPHOKINASE: 122 u/L
  CREATININE: 0.21 mg/dL
  GLUCOSE: 172 mg/dL
  LACTATE DEHYDROGENASE: 124 u/L
  LIPASE: 10 u/L
  PHOSPHORUS: 12.63 mg/dL
  POTASSIUM: 6.23 MEQ/L
  SODIUM: 146.33 MEQ/L
  TOTAL BILIRUBIN: 0.23 mg/dL
  TOTAL PROTEIN: 6.07 G/DL
  URIC ACID: 1.57 mg/dL
120 h, time 5 day
  ABSOLUTE BASOPHIL: 0 CELLS/uL
  ABSOLUTE EOSINOPHIL: 0 CELLS/uL
  ABSOLUTE LYMPHOCYTE: 11488.33 CELLS/uL
  ABSOLUTE MONOCYTE: 166 CELLS/uL
  ABSOLUTE SEGMENTED NEUTROPHIL: 512.33 CELLS/uL
  BASOPHIL: 0%
  EOSINOPHIL: 0%
  ERYTHROCYTE COUNT: 5.58 x10E6/uL
  HEMATOCRIT: 36.13%
  HEMOGLOBIN: 13.43 G/DL
  LEUKOCYTE COUNT: 12.17 x10E3/uL
  LYMPHOCYTE: 94.33%
  MEAN CORPUSCULAR HEMOGLOBIN: 24.07 pg
  MEAN CORPUSCULAR HEMOGLOBIN CONCENTRATION: 37.17 G/DL
  MEAN CORPUSCULAR VOLUME: 64.8 fL
  MONOCYTE: 1.33%
  NEUTROPHIL: 4.33%
  NUCLEATED RED BLOOD CELLS: 0 /100WBC
  PLATELET COUNT: 1442 x10E3/uL
  ALANINE AMINOTRANSFERASE: 49.33 u/L
  ALBUMIN: 4.27 G/DL
  ALKALINE PHOSPHATASE: 371 u/L
  ASPARTATE AMINOTRANSFERASE: 81.33 u/L
  BLOOD UREA NITROGEN: 15.33 mg/dL
  CARBON DIOXIDE: 21.67 mmol/L
  CHLORIDE: 107 MEQ/L
  CHOLESTEROL: 79.33 mg/dL
  CREATINE PHOSPHOKINASE: 245.67 u/L
  CREATININE: 0.42 mg/dL
  GLUCOSE: 151.67 mg/dL
  LACTATE DEHYDROGENASE: 117.67 u/L
  LIPASE: 11.5 u/L
  PHOSPHORUS: 12.33 mg/dL
  POTASSIUM: 6.79 MEQ/L
  SODIUM: 144.2 MEQ/L
  TOTAL BILIRUBIN: 0.23 mg/dL
  TOTAL PROTEIN: 6.07 G/DL
  URIC ACID: 2 mg/dL
